Test systems include CAKI-1 renal; COLO 205 colon; HCC-2998 colon; KM12 colon; MALME-3M melanoma; OVCAR-5 ovarian; SK-MEL-28 melanoma; UO-31 renal; LOX IMVI melanoma; SR leukemia.
Test in all cases: growth of human tumour cells (NCI), 48 h

Each structure is given as a SMILES string.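 Grown in 96-well plates, cells were treated for 48 hours with each compound at five concentrations. Insufficient inhibition: endpoint recorded as highest concentration tested. GI50 = concentration required for 50% inhibition of growth. TGI marks complete inhibition of growth.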

The record followed here is PubChem BioAssay (NCI).

Consider `CO/N=C(/C)c1cccc(Nc2cc(-n3nnc4ccccc43)nc3ccccc23)c1`, for which the GI50 was 22.5 µM in the assay with CAKI-1 renal; over 100 µM in the assay with COLO 205 colon; 25.7 µM with HCC-2998 colon; 16.1 µM in the assay with MALME-3M melanoma; 41.7 µM in the assay with OVCAR-5 ovarian; over 100 µM with SK-MEL-28 melanoma. Moreover, in the assay with UO-31 renal, the GI50 is over 100 µM. In addition, the TGI with CAKI-1 renal was over 100 µM; in the assay on COLO 205 colon it was over 100 µM; with HCC-2998 colon it was over 100 µM; in the assay with KM12 colon it was 5.78 µM; with MALME-3M melanoma, 58 µM; in the assay on OVCAR-5 ovarian, over 100 µM. In addition, the TGI with SK-MEL-28 melanoma and with UO-31 renal was over 100 µM each time.

Turning to `CN1CC(=O)N2Cc3ccccc3-n3cccc3C2C1` (stereo not given), the TGI with CAKI-1 renal, with COLO 205 colon, in the assay with HCC-2998 colon, in the assay with KM12 colon, with LOX IMVI melanoma and in the assay with MALME-3M melanoma was over 100 µM throughout. For the same compound, the TGI with OVCAR-5 ovarian, with SK-MEL-28 melanoma and with UO-31 renal was over 100 µM throughout.

`Oc1ccc(Nc2ncnc3c2sc2ncccc23)cc1`: the GI50 in the assay on CAKI-1 renal was under 0.0185 µM; in the assay on COLO 205 colon it was 0.0726 µM; in the assay on HCC-2998 colon, over 33.3 µM; in the assay with KM12 colon it was 1.73 µM; in the assay with LOX IMVI melanoma, 0.0368 µM; with MALME-3M melanoma, 4.93 µM. Further, the results for the GI50 with OVCAR-5 ovarian, with SK-MEL-28 melanoma and with UO-31 renal were 0.0831 µM, 3.75 µM and 0.0241 µM, respectively. For the same compound, the TGI was 9.21 µM with CAKI-1 renal; over 100 µM with HCC-2998 colon; over 100 µM in the assay on KM12 colon; over 100 µM with LOX IMVI melanoma; over 100 µM with MALME-3M melanoma; over 100 µM in the assay on OVCAR-5 ovarian. Moreover, the TGI in the assay with SK-MEL-28 melanoma was over 100 µM; in the assay on UO-31 renal, 5.02 µM.

For the compound `C(=NCCN1CCOCC1)=NC1CCCCC1`, the TGI in the assay with CAKI-1 renal, in the assay on COLO 205 colon, in the assay on KM12 colon, in the assay on LOX IMVI melanoma, in the assay with MALME-3M melanoma and in the assay with OVCAR-5 ovarian was over 100 µM each time. The TGI in the assay with SK-MEL-28 melanoma, in the assay on SR leukemia and in the assay with UO-31 renal was over 100 µM in each case.

`O=C1c2ccccc2C(=O)N1CCn1ccc(NC(c2ccccc2)(c2ccccc2)c2ccccc2)nc1=O`: the TGI was over 100 µM in the assay on CAKI-1 renal; 31.4 µM with COLO 205 colon; 37.7 µM in the assay on HCC-2998 colon; 49.1 µM in the assay with KM12 colon; 31.8 µM in the assay on LOX IMVI melanoma; 43.2 µM with MALME-3M melanoma. The values for the TGI in the assay on OVCAR-5 ovarian, with SK-MEL-28 melanoma and with UO-31 renal were 62.6 µM, 32.1 µM and 52.8 µM, respectively.

Regarding `CC(C)(C)NNC(=O)CCn1[nH]c(=O)c(Cl)c(Cl)c1=O`, the TGI in the assay with CAKI-1 renal, in the assay with COLO 205 colon, with HCC-2998 colon, in the assay with KM12 colon, with LOX IMVI melanoma and in the assay with MALME-3M melanoma was over 100 µM each time. Besides, the TGI with OVCAR-5 ovarian, in the assay with SK-MEL-28 melanoma and in the assay on UO-31 renal was over 100 µM each time.

As for `NC(N)=N/N=C/c1c(-c2ccsc2)nc2sccn12`, the GI50 was 10.3 µM in the assay on CAKI-1 renal; 12.1 µM in the assay with KM12 colon; 17.6 µM in the assay with LOX IMVI melanoma; 16.6 µM with OVCAR-5 ovarian; 14.2 µM in the assay on SK-MEL-28 melanoma; 20 µM with UO-31 renal. In addition, the TGI in the assay on CAKI-1 renal was 21.9 µM; with KM12 colon, 24.5 µM; in the assay with LOX IMVI melanoma it was 33.2 µM; in the assay on OVCAR-5 ovarian, 30.3 µM; in the assay with SK-MEL-28 melanoma, 27.6 µM; in the assay with UO-31 renal it was 36.8 µM.

As to `Cc1cc(Nc2ccc(NC(=O)c3ccc(Nc4ccnc5ccccc45)cc3)cc2)nc(N)n1`, the GI50 in the assay with CAKI-1 renal is over 100 µM; in the assay on MALME-3M melanoma it was 2 µM; in the assay on OVCAR-5 ovarian it was 3.4 µM; in the assay with UO-31 renal, 50.9 µM. Further, the TGI was over 100 µM with CAKI-1 renal, 4.65 µM with MALME-3M melanoma, 37.5 µM with OVCAR-5 ovarian and over 100 µM in the assay on UO-31 renal.

Turning to `CC[As](CC)SC[C@H](C)C(=O)N1CCC[C@H]1C(=O)O`, the GI50 with CAKI-1 renal is under 0.0181 µM; in the assay on COLO 205 colon, 0.0344 µM; in the assay with KM12 colon, 0.301 µM; in the assay on LOX IMVI melanoma, 0.0458 µM; in the assay with MALME-3M melanoma, 0.0441 µM; in the assay with OVCAR-5 ovarian, 0.245 µM. Further, the GI50 is 0.055 µM in the assay with SK-MEL-28 melanoma, under 0.01 µM in the assay on SR leukemia and 0.024 µM with UO-31 renal. Besides, the TGI in the assay on CAKI-1 renal was found to be 0.0648 µM; in the assay with COLO 205 colon, 0.14 µM; with KM12 colon it was 1.27 µM; in the assay with LOX IMVI melanoma, 0.102 µM; in the assay with MALME-3M melanoma it was 0.207 µM; in the assay on OVCAR-5 ovarian it was 0.735 µM. The TGI in the assay with SK-MEL-28 melanoma stood at 0.212 µM; in the assay on SR leukemia it was 0.0102 µM; in the assay with UO-31 renal, 0.0933 µM.

As to `Cc1cn2c(=O)c3ncn(C4OC(CO)C(O)C4O)c3n(C)c2n1` (stereo not given), the TGI in the assay on CAKI-1 renal, with COLO 205 colon, with HCC-2998 colon, in the assay with KM12 colon, in the assay with LOX IMVI melanoma and in the assay with MALME-3M melanoma was over 100 µM in each case. Also, the TGI in the assay with OVCAR-5 ovarian, in the assay with SK-MEL-28 melanoma and in the assay on UO-31 renal was over 100 µM throughout.

With `COc1cc(C(=O)N2CCN(C=O)C2=S)cc(OC)c1OC`, the GI50 in the assay with CAKI-1 renal is 13.6 µM; in the assay with COLO 205 colon, 20.2 µM; in the assay on HCC-2998 colon, 19.8 µM; in the assay with KM12 colon it was 14.4 µM; in the assay on LOX IMVI melanoma, 16.4 µM; in the assay on MALME-3M melanoma it was 24.3 µM. Further, the figures for the GI50 with OVCAR-5 ovarian and in the assay on SK-MEL-28 melanoma were 48.5 µM and 29.5 µM, respectively. The TGI with CAKI-1 renal was 26.7 µM; with COLO 205 colon, 39.4 µM; with HCC-2998 colon, 38.7 µM; with KM12 colon, 29.5 µM; in the assay on LOX IMVI melanoma, 33.5 µM; with MALME-3M melanoma, 43.3 µM. Moreover, the figures for the TGI in the assay on OVCAR-5 ovarian, with SK-MEL-28 melanoma and in the assay with UO-31 renal were over 100 µM, over 100 µM and 3.36 µM, respectively.

Consider `COc1ccc(/C=C\[N+](=O)[O-])cc1OC`, for which the GI50 was 1.8 µM with CAKI-1 renal; 5.1 µM in the assay on COLO 205 colon; 2.73 µM with KM12 colon; 1.66 µM in the assay with LOX IMVI melanoma; 22.6 µM in the assay on MALME-3M melanoma; 4.51 µM with OVCAR-5 ovarian. Also, the values for the GI50 in the assay on SK-MEL-28 melanoma, in the assay on SR leukemia and with UO-31 renal were 3.53 µM, 2.38 µM and 1.85 µM, respectively. In addition, the TGI with CAKI-1 renal worked out at 4.84 µM; with COLO 205 colon it was 18 µM; with KM12 colon, 7.54 µM; with LOX IMVI melanoma, 3.45 µM; with MALME-3M melanoma it was 43.5 µM; in the assay on OVCAR-5 ovarian, 19.3 µM. Further, the values for the TGI with SK-MEL-28 melanoma, with SR leukemia and with UO-31 renal were 13 µM, 7.99 µM and 3.87 µM, respectively.
